Data on two compounds can be found in US20090274773A1, “ANTIPROLIFERATIVE COMBINATION COMPRISING CYC-682 AND A CYTOTOXIC AGENT” (Cyclacel Limited, priority 2005, published 2009).

Assay type in all cases: cell-based, human
For test [1], the system named is NSCLC cell line RERF-LC-MA. Briefly: CNDAC combinations (alamar blue, Calcusyn Combination Index). The settings on record: named agent in combination with CNDAC, simultaneous treatment 72 h. The protocol: Experiments in the NSCLC cell lines H1299 or RERF-LC-MA were performed in 96-well plates, with cells seeded at a density of 3,000/well, in DMEM containing 10% (v/v) FCS. Stock solutions of all drugs were made up in dimethylsulfoxide (DMSO), with the exception of gemcitabine, which was dissolved in 0.9% (w/v) sterile saline solution.
For experimental assessment of potential synergistic interactions, the concomitant treatment regime involved simultaneous treatment of cells with CNDAC and the other agent under investigation for 72 h, alongside suitable controls of cells treated with the individual compounds alone for 72 hr. In the sequential treatment regimes, one drug was added to the cells 2 h after plating, and left for 24 h. Media was then aspirated, replaced with fresh media containing the second drug and incubated for 72 h. The two individual treatment controls for the sequential treatment regime involved substituting one of the drug treatments with drug-free media. After drug treatment, the number of cells in each well was estimated by incubating for 1 h in media containing 10% alamar blue (Roche, Lewes, East Sussex, U.K.) and measuring the absorbance at 488-595 nm. Drug interactions were analysed using the Calcusyn software package (BioSoft, Cambridge, U.K.) described below. A Combination Index (C.I.) of 1 indicates an additive drug interaction, whereas a C.I. greater than 1 is antagonistic and a score lower than 1 is synergistic.

For test [2], the system named is COLO205. Description: MTT growth inhibition assay, single agent. The settings on record: Homo sapiens, COLO 205, 24 hours exposure, read-out: Antiproliferative effects IC50s (MTT assay). The essentials:
(§1)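 Read-out: MTT (0.4 mg/ml, 4 h, 37° C), formazan dissolved in DMSO, absorbance at 560 nm; curves as % of untreated control. Cells plated 2×10^3/well, dosed after 24 h. Drug exposure 1, 24 or 48 h, then washout and 72 h drug-free post-incubation.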

The test system of test [3] is HOP92. Description: MTT growth inhibition assay, single agent. The conditions noted are these: Homo sapiens, HOP-92, 24 hours exposure, read-out: Antiproliferative effects IC50s (MTT assay). Put shortly:
as §1
In general terms: Formazan colour is commonly taken as a measure of viable cells.

Test [4] has as its system IGROV1. Description: MTT growth inhibition assay, single agent. The settings on record: Homo sapiens, IGROV-1, 24 hours exposure, read-out: Antiproliferative effects IC50s (MTT assay). Put shortly: as §1
The subject of test [5] is OVCAR1. Description: MTT growth inhibition assay, single agent. The conditions noted are these: Homo sapiens, 24 hours exposure, read-out: Antiproliferative effects IC50s (MTT assay). The essentials:
as §1

In test [6] the test system is HCC2998. Briefly: MTT growth inhibition assay, single agent. The settings on record: Homo sapiens, HCC 2998, 24 hours exposure, read-out: Antiproliferative effects IC50s (MTT assay). Put shortly: as §1
Test [7] has as its system HOP62. Briefly: MTT growth inhibition assay, single agent. The conditions noted are these: Homo sapiens, HOP-62, 24 hours exposure, read-out: Antiproliferative effects IC50s (MTT assay). The essentials:
as §1

Test [8] concerns HCT116. Briefly: MTT growth inhibition assay, single agent. The settings on record: Homo sapiens, HCT-116, 24 hours exposure, read-out: Antiproliferative effects IC50s (MTT assay). Put shortly: as §1
In test [9] the test system is MDA-MB-435. Description: MTT growth inhibition assay, single agent. The settings on record: Homo sapiens, 24 hours exposure, read-out: Antiproliferative effects IC50s (MTT assay). Put shortly: as §1

With `CC(=O)O[C@@]12CO[C@@H]1C[C@H](O)[C@@]1(C)C(=O)[C@H](O)C3=C(C)[C@@H](OC(=O)[C@H](O)[C@@H](NC(=O)OC(C)(C)C)c4ccccc4)C[C@@](O)([C@@H](OC(=O)c4ccccc4)[C@H]21)C3(C)C` [Docetaxel], in [1], the “Combination Index at ED50, Concomitant” value was 0.9. Moreover, in test [1], the “Combination Index at ED75, Concomitant” value is 0.97. Besides, the “Combination Index at ED90, Concomitant” value in test [1] is on record as 1.1. The IC50 in test [2] turned out to be 6 ± 1 nM; in test [3], 5 ± 1 nM; in [4], 20 ± 10 nM; in test [5] it was 50000 ± 120 nM; in [6], 4 ± 1 nM; in [7], 20 ± 40 nM. The results for the IC50 in test [8] and in test [9] were 10 ± 20 nM and 10 ± 2 nM, respectively.
On to `COc1cccc2c1C(=O)c1c(O)c3c(c(O)c1C2=O)C[C@@](O)(C(=O)CO)C[C@@H]3O[C@H]1C[C@H](N)[C@H](O)[C@H](C)O1` [Doxorubicin], for which the IC50 in test [2] turned out to be 1500 ± 500 nM; in test [3], 100 ± 50 nM; in test [4] it was 1300 ± 300 nM; in [5], 1000 ± 200 nM; in [6], 700 ± 140 nM; in [7] it was 140 ± 40 nM. The IC50 in test [8] is 100 ± 20 nM; in test [9], 2000 ± 400 nM.
